Tests used:
Type in all cases: cell-based, human
polyhormonal cells = test: PKC activator treatment in final stage (stage 6) of directed differentiation, flow cytometry
Protocol: (§1) Toward this goal, we initiated a small-molecule phenotypic screen to identify compounds that either promote alpha cell identity or conversely reduce proinsulin expression in vitro. Briefly, HUES8 cells were differentiated using our polyhormonal optimized protocol. Cells were dispersed and arrayed into a 384-well plate and compounds were introduced. HUES8-derived polyhormonal cells were co-incubated with a compound library for 96 hours, after which the cells were fixed and stained for pro/glucagon and pro/insulin. High-content imaging was used to quantify the percentage of cells expressing each hormone individually and the percentage of polyhormonal cells as marked by the co-expression of both hormones (FIGS. 3A-3B). In total 43 compounds were evaluated in quintuplicate. […] To confirm that the effects of this compound were not unique to the assay format, PdbU was evaluated in the final stage of the directed differentiation protocol.
To test the specificity of PKC activation on the results shown above, we compiled a small library of known PKC activators and evaluated their ability to similarly decrease insulin expression in polyhormonal cells. […] To that end, we treated polyhormonal cells for 28 days with either vehicle or each PKC activator and assessed the percentage of monohormonal expressing alpha cells at the end of the 28-day treatment. […]

[1] = test system: HUES8 cells differentiated to SC-beta cells; test: PdbU treatment of stage 6 SC-beta cell differentiation, flow cytometry
Source text: FIG. 7 provides flow cytometry of HUES8 cells differentiated to SC-beta cells and treated with PdbU for 14 days during stage 6.
Differentiation of hPSCs to beta cells results in a side population of polyhormonal cells. To this end we evaluated the effect of PKC activation on the differentiation of SC-beta cells. […] However, when treated with PdbU, the polyhormonal side population in the differentiation was reduced, and the percentage of monohormonal alpha cells was increased.
Cells were collected for flow cytometry analysis at various time points throughout the differentiation process. Cells were dispersed with TrypLE Express at 37° C. for 15 minutes after which trypsin was quenched with serum containing media (S1, S2, or S3). Cells were fixed in 4% PFA for 20 minutes and subsequently stored in PBS at 4° C. until staining. Staining was performed by first permeabilizing the cells in block solution (PBS+0.1% Triton X-100+5% donkey serum) for 40 minutes. Cells were then incubated with primary antibodies in block solution for 1 hour at RT, washed twice with PBST and incubated with secondary antibody in block solution for 1 hour at RT. Cells were then washed in three times and resuspended in PBST at a concentration of 1×10^6 cells/ml. Stained cells were analyzed using the Accuri C6 or Attune flow cytometers. Antibody concentrations used were as follows. Pro/insulin was assessed using an antibody that recognizes the c-peptide epitope from the Iowa Hybridoma Bank and used at a concentration of 1:300. Pro/glucagon was assessed using an antibody that recognizes the GLP-2 (Santa Cruz) or glucagon (Manufacturer) epitopes and used at a concentration of 1:300. Secondary antibodies used were a donkey-anti-goat-Alexaflour 488 (1:500) and a donkey-anti-rat-Alexaflour 647 (1:500).

[2] = test system: HUES8-derived polyhormonal cells; test: small-molecule phenotypic screen on polyhormonal cells (high-content imaging of pro/insulin and pro/glucagon); conditions: 96 hours incubation, quintuplicate
Protocol: as §1
Polyhormonal cells were dispersed using TrypLE Express for 15 minutes and quenched using S3 media. The resulting single cell suspension was arrayed into a 384 well plate which had been coated with Matrigel with 50,000 cells in each well. Compounds were introduced each to 5 separate wells and incubated for 96 hours after which cells were fixed with 4% PFA and stained for pro/insulin and pro/glucagon as described above with the following modifications. Antibody incubations and washes were performed using a BioTek EL405 Plate washer and dispenser. Cells were imaged with the cellomics array scan high content imaging system. Nine fields of view were captured for each well and analyzed for cell number and fluorescent content. The percentage of cells expressing pro/insulin and pro/glucagon was calculated for each well.

SC-alpha cells = test: glucagon secretion of SC-alpha cells with glucagon secretion modulators
Source text: To evaluate the ability of SC-alpha cells to respond to physiological conditions, we screened a number of glucagon secretion modulators and evaluated the effect on glucagon secretion. In the human islet, alpha cells secrete glucagon in response to low glucose conditions. […] Additionally, alpha cells respond to paracrine inhibitory signaling from delta cells through the hormone somatostatin resulting in suppressed glucagon secretion.
A number of pharmacological compounds have been developed to modulate glucagon secretion. We evaluated the effect of these compounds on SC-alpha cells to determine how well SC-alpha cells recapitulate the functional response of alpha cells (FIG. 4C).
Human islets or differentiated polyhormonal or SC-alpha cells were washed twice in low-glucose (2.8 mM) Krebs Ringer (KRB) buffer (128 mM NaCl, 5 mM KCl, 2.7 mM CaCl2, 1.2 mM MgSO4, 1 mM Na2HPO4, 1.2 mM KH2PO4, 5 mM NaHCO3, 10 mM HEPES, 0.1% BSA in milliQ). Cells were then loaded into 24 well transwell inserts and fasted in low glucose KRB for 1 hour at 37° C. Clusters were washed once in low glucose KRB and then incubated in low glucose KRB for 1 hour at 37° C. […] Cells were then dispersed and counted using a vicell automated cell counter. Collected supernatants were analyzed by ELISA for Insulin and/or glucagon and normalized to cell number.

[3] = stage 6 SC-beta cells treated with PdbU

Structure (SMILES) | population of polyhormonal cells induced to reduce insulin expression (polyhormonal cells; 28 day treatment, stage 6, vs. 23±3% (comparison)) [%] | percentage of monohormonal SC-alpha cells after withdrawal of PdbU (polyhormonal cells; cultured in the absence of PdbU for 7 days) | percentage of Nkx6.1/C-peptide co-positive cells (number of beta cells) ([1]; PdbU for 14 days during stage 6) | percentage of monohormonal alpha cells in the SC-beta differentiation [1, 3] | polyhormonal side population in the SC-beta differentiation [1, 3] | percentage of cells expressing pro/glucagon [2] | percentage of polyhormonal cells (cells expressing both pro/insulin and pro/glucagon) [2] | percentage of pro/insulin expressing cells [2] | glucagon secretion from SC-alpha cells (SC-alpha cells)
CCCC(=O)O[C@@H]1[C@@H](C)[C@@]2(O)[C@@H](C=C(CO)C[C@]3(O)C(=O)C(C)=C[C@@H]23)[C@@H]2C(C)(C)[C@]12OC(=O)CCC [PdbU] | 46±4 | did not significantly reduce | did not have a significant effect | increased | reduced | increase | significantly reduced | significantly decrease | 
COc1ccccc1OCC(O)CN1CCN(CC(=O)Nc2c(C)cccc2C)CC1 (stereo not drawn) [ranolazine] |  |  |  |  |  |  |  |  | increase glucagon secretion

— patent US20240368557A1, “STEM CELL-DERIVED ALPHA CELLS AND METHODS OF GENERATING SAME” (President and Fellows of Harvard College, priority 2018, published 2024)
